{"source": "patent US20200206313A1", "about": "“POLYPEPTIDE NANOTUBES LINKED BY DISULFIDE BONDS FOR TARGETED DELIVERY OF CYTOTOXIC THERAPIES” (MUSC FOUNDATION FOR RESEARCH DEVELOPMENT, priority 2018, published 2020)", "key": {"[1]": {"test": "Stability of nanotubes by fluorescence emission spectra at various pH and temperature", "format": "physicochemical", "experimental": "Fluorescence spectra were acquired on a Perkin Elmer Fluorescence spectrometer. Spectra were recorded for protein samples prepared in 10 mM Tris buffer at pH 7 or 12 (i.e., neutral and basic pH) and 10 mM HEPES buffer at pH 2 (acidic pH) and data were recorded using a 1.0 cm path length quartz cuvette. An excitation wavelength of 280 nm (tyrosine excitation) was used having slit width 2.5 nm and emission spectra were collected from 300 nm to 550 nm with λmax at 340 nm."}, "[2]": {"test": "Stability of mature nanotubes by AFM", "format": "physicochemical", "conditions": "~9-months old nanotubes", "experimental": "AFM experiments were performed on a NX-10 AFM (Park systems) system in the non-contact mode. The protein sample was dropped onto freshly cleaved mica and incubated for 20 min. After rinsing with Milli-Q water two times, the sample was dried in a desiccator. […] The tip radius was <10 nm. Images were obtained at a scan rate of 1 Hz."}, "MDAMB231": {"tested_on": "MDAMB231", "test": "Cytotoxicity, MTT assay, MDAMB231", "format": "cell-based", "experimental": "(§1) HeLa (Cervical cancer cell line), MDA-MB-231 (Breast cancer cell line) and HaCaT (Human keratinocytes) cells were maintained in growth medium consisting of Dulbecco's Modified Eagle's Medium (DMEM, Gibco, India) with high glucose, supplemented with 10% FBS and 1% penicillin-streptomycin. The cells were grown in […] flasks (BD Falcon) and passaged every three days. All culture reagents were purchased from Thermofisher scientific. The serum free media was used to eliminate any confounding effects from serum adsorption to the nanotubes. Within the time-period (5 h) of the experiment, no adverse cellular responses were observed from serum deprivation or serum shock after a transfer from serum containing growth media.\n(§2) Cytotoxicity of nanotube, DOX loaded nanotube and free DOX were assessed in HeLa and MDAMB231 using the MTT assay. About 5×10^3 cells were seeded per well of a 96-well plate and allowed to attach during incubation for 24 h in a humidified incubator at 37° C. Cells were treated with different concentrations of nanotubes, free DOX or DOX loaded nanotubes ranging from 0.2 to 6.4 μg/ml. Four hours before termination of the assay, MTT was added. Mitochondria of viable cells […] MTT to produce purple Formazan crystals. […] The absorbance of each well was measured at 570 nm using a microplate reader (Synergy HT, BioTek Instrument Inc., Winooski Vt.). […]"}, "HeLa": {"tested_on": "HeLa", "test": "Cytotoxicity, MTT assay, HeLa", "format": "cell-based", "experimental": "as §1, §2"}, "[3]": {"tested_on": "integrin-induced phosphorylation of FAK at tyrosine 397", "test": "Integrin signaling: Western blot of FAK phosphorylation at tyrosine 397 in HeLa cells", "format": "cell-based", "conditions": "500 ng/ml, 1 h", "experimental": "Cells were maintained as mentioned above in 65 mm dishes. HeLa cells were serum starved for 24 h to remove the effect of serum on cells. Cells were treated with nanotubes or full length IGFBP-2 (1-289) for 1 h in serum-free DMEM. An additional set of cells was treated for 1 h with nanotubes or full length IGFBP-2 without the integrin pathway inhibitor (RGDS) under the same conditions. For control treatments, cells were pretreated with 10 mM RGDS peptide for 1 h. Later, cells were washed once with PBS and lysed in detergent lysis buffer (150 mM NaCl (Sigma Aldrich, USA), 0.1% SDS (Calbiochem, Germany), 0.5% NP40 (Amresco, USA), 1 mM EDTA (pH 8) and protease inhibitor cocktail, PIC (Calbiochem) with gentle vortexing at 4° C. for 20 min and centrifuged at 10,000×g for 10 min. The soluble fraction was separated and, protein estimation was done by Bradford assay. 30 μg of total protein was dissolved in SDS sample buffer (240 mM Tris-HCl (pH 6.8), 8% (w/v) SDS, 0.1% bromophenol blue and 40% (v/v) glycerol), heated at 96° C. for 10 min and centrifuged briefly. Samples were resolved on 12.5% SDS-polyacrylamide gels in Tris-glycine electrophoresis buffer (pH 8.3) containing 25 mM Tris base, 250 mM glycine and 0.1% SDS at 100 Volts for 2 h. […]"}, "Zeta potential": {"test": "Zeta potential", "format": "physicochemical", "experimental": "The Nano tubular size distribution was measured on Zetasizer (Malvern, Southborough, Mass., USA). The changes in the surface charges of free nanotube and nanotube-DOX were probed via the zeta potential using Nano ZS (Malvern, Southborough, Mass., USA)."}, "[4]": {"test": "In vitro DOX release by dialysis method", "format": "physicochemical", "conditions": "physiological pH 7.4, 37° C., free DOX versus nanotube-DOX", "experimental": "In-vitro drug release experiments were conducted using the dialysis method. The Nanotube-DOX conjugate was dialyzed against medium under different conditions: pH 5, pH 7.4, pH 7.4 with addition of 10 mM GSH, pH 5+10 mM GSH, pH 7.5+10 mM GSH+Enzyme (trypsin) and pH 5+10 mM GSH+trypsin. GSH was used to stimulate redox conditions and trypsin was used to investigate the effect of a non-specific enzyme on nanotube drug carrying ability. As a control free DOX was dialyzed against the same medium at physiological pH (7.4). All dialysis experiments were performed using a dialysis kit having a molecular mass cutoff of 1 kDa. Samples were dialyzed against the DMEM medium without phenol red (Thermofisher scientific) containing 1% P/S (Penicillin-Streptomycin, Cat no, India), 10% FBS (Fetal bovine serum, RM10432, Himedia, India) separately, with gentle and constant stirring at 37° C. At specific time points, aliquots of the medium were collected and absorbance at 495 nm was measured to quantify the release of DOX."}, "HeLa cells [5]": {"tested_on": "HeLa cells", "test": "Confocal visualization of cellular uptake of DOX in HeLa cells", "format": "cell-based", "conditions": "0.4 μg/ml, 1 h and 4 h", "experimental": "(§3) For microscopic analysis, cells were grown on sterile coverslips with all treatments performed in DMEM without serum for 1 h or 4 h. Treatment was terminated by removing medium and cells washing cells twice with PBS followed by nuclear staining with DAPI (4′,6-diamidino-2-phenylindole) for 10 min at room temperature. Cells were then washed with DPBS and excess buffer was removed. Coverslips were then treated with Antifade (Thermo Fisher Scientific India Private Ltd.) and sealed to a sterile glass slide and analyzed by confocal microscopy (LSM 510 Meta equipped with an Airyscan module, Zeiss, GmbH, Germany)."}, "HeLa cells [6]": {"tested_on": "HeLa cells", "test": "Cellular uptake of DOX by FACS, HeLa", "format": "cell-based", "conditions": "percentage population, 0.4 μg/ml, the sentence does not name the cell line (HeLa assumed)", "experimental": "Fluorescence-activated cell sorting (FACS) was used to quantify the cellular uptake of free Doxorubicin and that released from the Nanotube-DOX conjugates exposed to HeLa and HaCaT cells. The cells were treated with free DOX and Nanotube-DOX for 0.5, 1, 2 and 4 h using concentrations corresponding to their IC50 values. The cells were washed with DPBS to remove the unassimilated DOX and then trypsinized. The cell suspension was then centrifuged, and the pellet was re-suspended in 300 μl of DPBS with 0.1% of FBS. The DOX uptake was estimated by quantifying the cell populations using FACS employing Cell Quest software (using a FACSCalibur instrument, BD Biosciences, San Jose Calif.)."}, "[7]": {"tested_on": "integrin receptors on the cell surface (HeLa cells)", "test": "Confocal imaging of nanotube-FITC interaction with HeLa cells", "format": "cell-based", "conditions": "for change of cell-associated signal after integrin inhibitor RGDS: 1 h with 25 μg/ml inhibitor after 4 h incubation", "experimental": "as §3"}}, "note": "No end group written: not given here. *: point of attachment. FITC = O=C1OC2(c3ccc(O)cc3Oc3cc(O)ccc32)c2ccc(NC(=S)*)cc21", "data": [{"compound": "nanotube: Self-assembled disulfide-linked nanotube of polypeptide hIGFBP-2 249-289 (R281C), SEQ ID NO: 1, with RGD motif (GPLGSPGIRGSCVNPNTGKLIQGAPTIRGDPECHLFYNEQQEACGVHTQRMT; not fully specified (bridges); also: self-assembled nanotube, subunits linked by intermolecular disulfides (Cys12, Cys33, Cys44))", "values": [{"measurement": "stability at different pH", "setting": "[1]; pH 2, 7 and 12, fluorescence spectra", "result": "stable at all the three pH"}, {"measurement": "stability at high temperature", "setting": "[1]; pH 7, 90° C., fluorescence spectra", "result": "intact"}, {"measurement": "morphological characteristics on storage", "setting": "[2]", "result": "intact"}, {"measurement": "cytotoxicity of nanotube alone", "setting": "MDAMB231; MDAMB231, after 48 h", "result": "did not cause any appreciable cytotoxicity"}, {"measurement": "cytotoxicity of nanotube alone", "setting": "HeLa; after 48 h", "result": "did not cause any appreciable cytotoxicity"}, {"measurement": "pFAK induction in presence of RGDS inhibitor", "setting": "[3]; RGDS pre-treatment", "result": "compromised"}, {"measurement": "intensity of pFAK", "setting": "[3]; absence of inhibitor", "result": "higher compared to control cells"}, {"measurement": "zeta potential", "setting": "Zeta potential", "result": "−21.4", "unit": "mV"}]}, {"compound": "COc1cccc2c1C(=O)c1c(O)c3c(c(O)c1C2=O)C[C@@](O)(C(=O)CO)C[C@@H]3O[C@H]1C[C@H](N)[C@H](O)[C@H](C)O1.Cl", "note": "[free DOX, Doxorubicin hydrochloride]", "values": [{"measurement": "release of DOX into the medium", "setting": "[4]", "result": "faster than that of DOX loaded on the nanotube"}, {"measurement": "cells killed", "setting": "MDAMB231; MDAMB231, 5 μg/ml, 48 h", "result": "~70", "unit": "%"}, {"measurement": "intracellular localization of drug", "setting": "HeLa cells [5]", "result": "major accumulation is seen within nuclei"}, {"measurement": "cells killed", "setting": "HeLa; 5 μg/ml, 48 h", "result": "~70", "unit": "%"}, {"measurement": "increase in Dox uptake from 2 h to 4 h", "setting": "HeLa cells [6]", "result": "more than 5 fold"}]}, {"compound": "nanotube-FITC (GPLGSPGIRGSCVNPNTGK(FITC)LIQGAPTIRGDPECHLFYNEQQEACGVHTQRMT; not fully specified (bridges); also: self-assembled nanotube, subunits linked by intermolecular cysteine disulfides)", "values": [{"measurement": "internalization / cellular distribution", "setting": "[7]; 360 ng/ml, 4 h, serum free medium", "result": "no significant internalization"}, {"measurement": "change of cell-associated signal after integrin inhibitor RGDS", "setting": "[7]", "result": "prominent loss of nanotube-FITC intensity"}]}, {"compound": "Fluorescein isothiocyanate [free FITC, reference compound]", "values": [{"measurement": "change of cell-associated signal after integrin inhibitor RGDS", "setting": "[7]", "result": "does not show a significant decrease"}]}]}
